Patent publication US11787816B2, “Chlorin compound, and preparation and use thereof” (Southwest Jiaotong University, priority 2021, dated 2023)

Tests used:
[1] = test system: human hepatocellular carcinoma huh-7 cells; test: Photosensitizer-mediated PDT, in vitro proliferation (MTT), huh-7; assay type: cell-based
Outline: (§1)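 Cells at 70-80% confluence got compound at 1, 2, 5 or 10 μg/mL in the dark, then 660 nm light at 2, 4 or 8 J/cm^2; dark-only and untreated controls. MTT read 24 h later. Viability expressed as OD relative to untreated control ×100%.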

[2] = test system: murine mammary carcinoma 4T1 cells; test: Antitumor activity as photosensitizers on tumor-bearing mice (two PDT treatments); assay type: in vivo
Protocol: (§2) The murine mammary carcinoma cells (4T1 line) were subjected to adherent culture. After growing to a confluence of 70%-80%, the cells in the culture flask were routinely digested, centrifuged and counted, and then resuspended with 0.85% normal saline to a density of 1×10^7 cells/mL. The cell suspension was injected into the left lateral middle axillary subcutaneous part of […] Bal b/c healthy mice (female, aged 6-8 weeks) at 0.1 mL/mouse. When the tumor diameter, which was observed every other day, reached 0.6-0.8 cm, the mice with well-growing tumors and no ulcers on the epidermis were selected for grouped treatment.
(2) Mice with similar body weight and uniform tumor size are selected and randomly divided into 4 groups with 6 mice for each group. After inoculation of 4T1 cells and the tumor volume grows to 50˜80 mm^3, the mice were subjected to a first drug administration from the tail vein by group.
6 h after the drug administration, the mice were fixed to expose the tumor growth site. As a first PDT treatment, light irradiation was performed for 8 min, using PDT-660 photodynamic therapy equipment at the laser wavelength of 660 nm and the light dose of 150 Joule/cm^2. One week later, the second PDT treatment (the dosage and lighting conditions were the same as those of the first PDT treatment) was performed. The mice were sacrificed 14 days after the treatment. The tumor was removed, weighed and recorded.

[3] = test system: murine mammary carcinoma 4T1 cells; test: Antitumor activity as photosensitizers on tumor-bearing mice (one PDT treatment); assay type: in vivo; settings: for Inhibitory rate (average ± SD, %) / Tumor weight (average ± SD, g): 660 nm, 75 Joule/cm^2 6 h after dosing, 7 days after PDT; for Body weight At the begining / Body weight At the end: one PDT treatment, mice, in g (unit assumed)
Protocol: as §2
(1) Mice with similar body weight and uniform tumor size are selected and randomly divided into 7 groups with 6 mice for each group. After inoculation for 48 h, the mice were subjected to drug administration separately from the tail vein by group.
6 h after the drug administration, the mice were fixed to expose the tumor growth site. Light irradiation was performed for 8 min, using PDT-660 photodynamic therapy equipment at a laser wavelength of 660 nm and a light dose of 75 Joule/cm^2. Then both of the mice growth and tumor growth are observed continuously. 7 days after photodynamic therapy, the animals were sacrificed. The tumor was stripped and weighed, and the body weight was recorded.

[4] = test system: human cervical cancer Hela cells; test: Photosensitizer-mediated PDT, in vitro proliferation (MTT), Hela; assay type: cell-based; settings: for cell viability (%): Hela
Outline: as §1

[5] = test system: murine mammary carcinoma 4T1 cells; test: Antitumor activity as sonosensitizers (SDT) on tumor-bearing mice; assay type: in vivo; settings: for Inhibitory rate (average ± SD, %) / Tumor weight (average ± SD, g): SDT 1.0 MHz, 3.0 W/cm^2, 3 min, 6 h after dosing, 7 days after SDT; for Body weight At the beginning / Body weight At the end: SDT, mice, in g (unit assumed)
Protocol: as §2
Mice with similar body weight and uniform tumor size are selected and randomly divided into 6 groups with 6 mice for each group. 48 h after inoculation, the mice were subjected to drug administration separately from the tail vein by group.
[…] 6 h after drug administration, each group of mice was anesthetized by intraperitoneal injection with 0.2 mL of 1% pentobarbital sodium. Then the mice were fixed to allow the tumor growth site exposed. The SDT group was treated using an ultrasonic therapeutic apparatus at an impulse waveform of 1.0 MHz and power of 3.0 W/cm^2 for 3 min. 7 days after SDT, the animals were sacrificed. The tumor was stripped and weighed, and the body weight was recorded.

[6] = 0.25 mg/kg tail vein, two PDT treatments one week apart, 660 nm, 150 Joule/cm^2, 14 days after treatment
[7] = 0.25 mg/kg, two PDT treatments, mice, in g (unit assumed)

With “3-hexoxymethyl-3-devinyl-chlorin e4 disodium salt [CEFO]” the “cell viability (%)” value ([1]; 1 μg/mL, 660 nm, 2 J/cm^2) was 63 ± 3%, the “cell viability (%)” value ([1]; 1 μg/mL, 660 nm, 4 J/cm^2) was 60 ± 3% and the “cell viability (%)” value ([1]; 1 μg/mL, 660 nm, 8 J/cm^2) was 53 ± 3%. For the same substance, the “cell viability (%)” value ([1]; 1 μg/mL, no light) was 99 ± 2%, the “cell viability (%)” value ([1]; 2 μg/mL, 660 nm, 2 J/cm^2) was 58 ± 1% and the “cell viability (%)” value ([1]; 2 μg/mL, 660 nm, 4 J/cm^2) was 53 ± 3%. For the same substance, the “cell viability (%)” value ([1]; 2 μg/mL, 660 nm, 8 J/cm^2) was 30 ± 2%, the “cell viability (%)” value ([1]; 2 μg/mL, no light) was 99 ± 2% and the “cell viability (%)” value ([1]; 5 μg/mL, 660 nm, 2 J/cm^2) was 39 ± 2%. For the same substance, the “cell viability (%)” value ([1]; 5 μg/mL, 660 nm, 4 J/cm^2) was 24 ± 2%, the “cell viability (%)” value ([1]; 5 μg/mL, 660 nm, 8 J/cm^2) was 27 ± 1% and the “cell viability (%)” value ([1]; 5 μg/mL, no light) was 97 ± 3%. The “cell viability (%)” value ([1]; 10 μg/mL, 660 nm, 2 J/cm^2) was 25 ± 2%, the “cell viability (%)” value ([1]; 10 μg/mL, 660 nm, 4 J/cm^2) was 9 ± 1% and the “cell viability (%)” value ([1]; 10 μg/mL, 660 nm, 8 J/cm^2) was 7 ± 1%. For the same substance, the “cell viability (%)” value ([1]; 10 μg/mL, no light) was 93 ± 4%, the “Inhibitory rate (average ± SD, %)” value [2, 6] was 96.9 ± 3.1% and the “Tumor weight (average ± SD, g)” value [2, 6] was 0.029 ± 0.028 g. The “Body weight At the beginning” value [2, 7] was 20.2 ± 0.2, the “Body weight At the end” value [2, 7] was 22.2 ± 0.5 and the “Inhibitory rate (average ± SD, %)” value ([3]; 0.2 mg/kg tail vein) was 87.0 ± 3.1%. The “Tumor weight (average ± SD, g)” value ([3]; 0.2 mg/kg tail vein) was 0.021 ± 0.005 g, the “Body weight At the begining” value ([3]; 0.2 mg/kg) was 20.4 ± 0.3 and the “Body weight At the end” value ([3]; 0.2 mg/kg) was 21.5 ± 0.3. For the same substance, the “Inhibitory rate (average ± SD, %)” value ([3]; 0.4 mg/kg tail vein) was 97.5 ± 0.4%, the “Tumor weight (average ± SD, g)” value ([3]; 0.4 mg/kg tail vein) was 0.004 ± 0.001 g and the “Body weight At the begining” value ([3]; 0.4 mg/kg) was 20.7 ± 0.4. The “Body weight At the end” value ([3]; 0.4 mg/kg) was 21.8 ± 0.4, the “cell viability (%)” value ([4]; 1 μg/mL, 660 nm, 2 J/cm^2) was 65 ± 3% and the “cell viability (%)” value ([4]; 1 μg/mL, 660 nm, 4 J/cm^2) was 61 ± 3%. For the same substance, the “cell viability (%)” value ([4]; 1 μg/mL, 660 nm, 8 J/cm^2) was 40 ± 2%, the “cell viability (%)” value ([4]; 1 μg/mL, no light) was 101 ± 2% and the “cell viability (%)” value ([4]; 2 μg/mL, 660 nm, 2 J/cm^2) was 54 ± 3%. For the same substance, the “cell viability (%)” value ([4]; 2 μg/mL, 660 nm, 4 J/cm^2) was 45 ± 2%, the “cell viability (%)” value ([4]; 2 μg/mL, 660 nm, 8 J/cm^2) was 25 ± 2% and the “cell viability (%)” value ([4]; 2 μg/mL, no light) was 107 ± 2%. The “cell viability (%)” value ([4]; 5 μg/mL, 660 nm, 2 J/cm^2) was 38 ± 2%, the “cell viability (%)” value ([4]; 5 μg/mL, 660 nm, 4 J/cm^2) was 24 ± 3% and the “cell viability (%)” value ([4]; 5 μg/mL, 660 nm, 8 J/cm^2) was 14 ± 4%. The “cell viability (%)” value ([4]; 5 μg/mL, no light) was 109 ± 2%, the “cell viability (%)” value ([4]; 10 μg/mL, 660 nm, 2 J/cm^2) was 25 ± 2% and the “cell viability (%)” value ([4]; 10 μg/mL, 660 nm, 4 J/cm^2) was 4 ± 1%. The “cell viability (%)” value ([4]; 10 μg/mL, 660 nm, 8 J/cm^2) was 3 ± 2%, the “cell viability (%)” value ([4]; 10 μg/mL, no light) was 107 ± 2% and the “toxicity to the cells when the drug is used alone without photodynamic treatment” value ([4]; summary statement for Hela, huh-7 and 4T1 cells, no light) was “will not lower the cell viability”. The “Inhibitory rate (average ± SD, %)” value ([5]; 2.5 mg/kg tail vein) was 64.3 ± 4.3%, the “Tumor weight (average ± SD, g)” value ([5]; 2.5 mg/kg tail vein) was 0.061 ± 0.007 g and the “Body weight At the beginning” value ([5]; 2.5 mg/kg) was 20.4 ± 0.3. For the same substance, the “Body weight At the end” value ([5]; 2.5 mg/kg) was 21.4 ± 0.3, the “Inhibitory rate (average ± SD, %)” value ([5]; 5 mg/kg tail vein) was 84.2 ± 2.9% and the “Tumor weight (average ± SD, g)” value ([5]; 5 mg/kg tail vein) was 0.027 ± 0.004 g. For the same substance, the “Body weight At the beginning” value ([5]; 5 mg/kg) was 20.2 ± 0.2 and the “Body weight At the end” value ([5]; 5 mg/kg) was 21.3 ± 0.2.
